In ChEMBL document CHEMBL4402585 (J Med Chem, 2020):
Active and inactive are the calls of the source. The calls are words filed in the database; no cut-off is given here.

What was measured:
[1] = target: T1, Bromodomain-containing protein 4 (Homo sapiens, UniProt O60885); assay: (§1) Inhibition of SGRG-K(Ac)-GG-K(Ac)-GLG-K(Ac)-GGA-K(Ac)-RHRKVGG-K-Biotin binding to N-terminal His6-tagged BRD4 bromodomain 1 (49 to 170 residues) (unknown origin) expressed in Escherichia coli BL21 (DE3) preincubated for 15 mins followed by biotin-labeled H4 peptide addition and measured after 10 mins by Alphascreen assay
[2] = target: Histone acetyltransferase p300 (Homo sapiens, UniProt Q09472); assay: Inhibition of MSGRGK(Ac)-GGK(Ac)GLGK(Ac)GGAKRHR-biotin binding to EP300 (1040 to 1160 residues) (unknown origin) expressed in Escherichia coli BL21 (DE3) by Alphascreen assay
Sequence of Histone acetyltransferase p300 (Q09472 whole entry, the tested form may be a part): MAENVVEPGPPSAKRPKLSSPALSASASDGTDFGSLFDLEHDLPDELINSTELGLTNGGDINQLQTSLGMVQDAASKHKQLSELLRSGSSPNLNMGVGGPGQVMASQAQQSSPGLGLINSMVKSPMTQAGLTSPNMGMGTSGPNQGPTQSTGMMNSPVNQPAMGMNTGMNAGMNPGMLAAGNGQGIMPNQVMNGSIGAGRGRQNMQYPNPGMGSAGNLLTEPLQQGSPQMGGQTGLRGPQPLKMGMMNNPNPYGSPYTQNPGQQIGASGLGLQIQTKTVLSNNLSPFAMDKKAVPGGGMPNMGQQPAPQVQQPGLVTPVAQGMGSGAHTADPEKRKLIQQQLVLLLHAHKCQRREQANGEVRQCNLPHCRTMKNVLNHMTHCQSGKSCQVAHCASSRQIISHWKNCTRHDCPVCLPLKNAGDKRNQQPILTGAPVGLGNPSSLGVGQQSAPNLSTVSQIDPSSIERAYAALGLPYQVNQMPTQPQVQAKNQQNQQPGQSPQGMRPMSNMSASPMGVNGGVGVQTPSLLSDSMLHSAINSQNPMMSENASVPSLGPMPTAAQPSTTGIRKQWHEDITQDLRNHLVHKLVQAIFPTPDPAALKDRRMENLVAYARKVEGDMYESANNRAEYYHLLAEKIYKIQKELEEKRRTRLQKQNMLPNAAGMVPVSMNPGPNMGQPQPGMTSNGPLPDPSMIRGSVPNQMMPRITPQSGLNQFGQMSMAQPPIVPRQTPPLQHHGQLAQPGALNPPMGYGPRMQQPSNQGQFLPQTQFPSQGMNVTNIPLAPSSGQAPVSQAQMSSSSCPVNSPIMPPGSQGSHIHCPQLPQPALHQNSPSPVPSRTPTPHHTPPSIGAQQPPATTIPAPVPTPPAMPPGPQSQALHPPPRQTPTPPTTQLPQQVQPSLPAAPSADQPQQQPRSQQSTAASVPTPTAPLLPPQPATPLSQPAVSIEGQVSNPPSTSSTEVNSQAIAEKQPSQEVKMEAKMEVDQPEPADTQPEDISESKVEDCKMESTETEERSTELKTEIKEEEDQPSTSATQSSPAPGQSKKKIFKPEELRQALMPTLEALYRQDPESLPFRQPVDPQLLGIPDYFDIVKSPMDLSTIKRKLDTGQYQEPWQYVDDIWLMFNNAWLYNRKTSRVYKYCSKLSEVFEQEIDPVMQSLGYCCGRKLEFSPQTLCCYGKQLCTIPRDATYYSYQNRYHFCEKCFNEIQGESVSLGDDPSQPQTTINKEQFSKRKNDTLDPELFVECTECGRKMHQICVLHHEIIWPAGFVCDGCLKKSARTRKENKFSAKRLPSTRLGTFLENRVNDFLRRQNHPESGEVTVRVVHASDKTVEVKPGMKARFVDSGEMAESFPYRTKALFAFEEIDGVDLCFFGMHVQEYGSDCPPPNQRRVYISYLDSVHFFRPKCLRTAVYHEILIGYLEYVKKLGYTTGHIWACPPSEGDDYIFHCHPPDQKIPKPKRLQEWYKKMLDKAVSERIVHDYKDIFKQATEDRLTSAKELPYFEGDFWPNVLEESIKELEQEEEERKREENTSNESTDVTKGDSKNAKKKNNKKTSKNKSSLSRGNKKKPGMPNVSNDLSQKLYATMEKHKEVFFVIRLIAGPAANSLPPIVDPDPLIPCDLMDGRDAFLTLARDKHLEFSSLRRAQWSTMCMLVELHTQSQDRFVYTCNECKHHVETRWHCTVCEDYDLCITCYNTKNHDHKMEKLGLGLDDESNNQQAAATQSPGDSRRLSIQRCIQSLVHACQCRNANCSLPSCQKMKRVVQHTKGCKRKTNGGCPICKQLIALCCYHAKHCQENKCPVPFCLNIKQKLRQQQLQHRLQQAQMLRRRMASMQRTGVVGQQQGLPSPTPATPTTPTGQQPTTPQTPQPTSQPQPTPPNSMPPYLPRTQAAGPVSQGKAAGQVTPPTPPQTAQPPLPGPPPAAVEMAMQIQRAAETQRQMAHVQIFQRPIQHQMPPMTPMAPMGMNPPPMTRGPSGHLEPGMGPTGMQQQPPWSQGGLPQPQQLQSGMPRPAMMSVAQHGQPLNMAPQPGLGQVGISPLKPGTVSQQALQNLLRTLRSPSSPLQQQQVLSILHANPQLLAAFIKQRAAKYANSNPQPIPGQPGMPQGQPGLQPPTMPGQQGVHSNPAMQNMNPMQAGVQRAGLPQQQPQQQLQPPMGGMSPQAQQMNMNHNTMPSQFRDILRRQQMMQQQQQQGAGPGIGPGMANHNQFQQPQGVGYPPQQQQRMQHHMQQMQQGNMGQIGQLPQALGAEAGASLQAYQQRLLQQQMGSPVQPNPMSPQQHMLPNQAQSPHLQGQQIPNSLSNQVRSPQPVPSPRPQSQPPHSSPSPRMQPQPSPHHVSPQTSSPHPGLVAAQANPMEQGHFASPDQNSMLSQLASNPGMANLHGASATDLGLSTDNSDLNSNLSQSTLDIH

[3] = target: T1, Bromodomain-containing protein 4; assay: as §1, with “2 (344” for “1 (49”, “455” for “170”
[4] = Half life in rat liver microsomes at 0.1 uM preincubated for 10 mins followed by NADPH addition and measured up to 60 mins by LC-MS/MS analysis; assay type: ADME, Microsome
[5] = Half life in human liver microsomes at 0.1 uM preincubated for 10 mins followed by NADPH addition and measured up to 60 mins by LC-MS/MS analysis; assay type: ADME, Microsome
[6] = Clearance in rat liver microsomes at 0.1 uM preincubated for 10 mins followed by NADPH addition and measured up to 60 mins by LC-MS/MS analysis; assay type: ADME, Microsome; conditions: 1 h
[7] = Clearance in human liver microsomes at 0.1 uM preincubated for 10 mins followed by NADPH addition and measured up to 60 mins by LC-MS/MS analysis; assay type: ADME, Microsome; conditions: 1 h
MV4-11 [8] = assay: Antiproliferative activity against human MV4-11 cells assessed as reduction in cell viability measured after 72 hrs by Celltitre-glo luminescence assay; assay type: functional, cell-based; conditions: MV4-11, 72 h
[9] = target: T1, Bromodomain-containing protein 4
Description: Binding affinity to N-terminal His6-tagged BRD4 bromodomain 1 (49 to 170 residues) (unknown origin) expressed in Escherichia coli BL21 (DE3) assessed as change in melting temperature at 1:100 molar ratio by SYPRO orange dye based fluorescence thermal shift assay

[10] = Clearance in mouse liver microsomes at 0.1 uM preincubated for 10 mins followed by NADPH addition and measured up to 60 mins by LC-MS/MS analysis; assay type: ADME, Microsome; conditions: 1 h
[11] = Half life in mouse liver microsomes at 0.1 uM preincubated for 10 mins followed by NADPH addition and measured up to 60 mins by LC-MS/MS analysis; assay type: ADME, Microsome
[12] = target: T1, Bromodomain-containing protein 4; assay: Inhibition of BRD4 (unknown origin)
MM1.S = assay: Antiproliferative activity against human MM1S cells assessed as reduction in cell viability measured after 72 hrs by Celltitre-glo luminescence assay; assay type: functional, cell-based
RS4-11 = assay: Antiproliferative activity against human RS4:11 cells assessed as reduction in cell viability measured after 72 hrs by Celltitre-glo luminescence assay; assay type: functional, cell-based; conditions: RS4-11, 72 h
Kasumi 1 = assay: Antiproliferative activity against human Kasumi-1 cells assessed as reduction in cell viability measured after 72 hrs by Celltitre-glo luminescence assay; assay type: functional, cell-based; conditions: Kasumi 1, 72 h
[13] = Oral bioavailability in Sprague-Dawley rat at 3 mg/kg by LC-MS/MS analysis; assay type: ADME, organism-based; conditions: in vivo
[14] = Cmax in Sprague-Dawley rat at 3 mg/kg, po by LC-MS/MS analysis; assay type: ADME, organism-based; set-up: dose 3 mg/kg, route oral; conditions: in vivo
[15] = Half life in Sprague-Dawley rat at 1 mg/kg, iv by LC-MS/MS analysis; assay type: ADME, organism-based; conditions: in vivo
[16] = AUC (0 to t) in Sprague-Dawley rat at 3 mg/kg, po by LC-MS/MS analysis; assay type: ADME, organism-based; conditions: in vivo
[17] = Volume of distribution at steady state in Sprague-Dawley rat at 1 mg/kg, iv by LC-MS/MS analysis; assay type: ADME, organism-based; conditions: in vivo, read-out: Vdss
[18] = AUC (0 to t) in Sprague-Dawley rat at 1 mg/kg, iv by LC-MS/MS analysis; assay type: ADME, organism-based; conditions: in vivo
[19] = Half life in Sprague-Dawley rat at 3 mg/kg, po by LC-MS/MS analysis; assay type: ADME, organism-based; conditions: in vivo
[20] = Clearance in Sprague-Dawley rat at 1 mg/kg, iv by LC-MS/MS analysis; assay type: ADME, organism-based; conditions: in vivo
MV4-11 [21] = assay: Cell cycle arrest in human MV4-11 cells assessed as increase in accumulation at G1-phase at 125 nM measured after 24 hrs by propidium iodide staining based flow cytometry; assay type: functional
MV4-11 [22] = assay: Antitumor activity against human MV4-11 cells xenografted in mouse assessed as tumor growth inhibition at 50 mg/kg, po administered for 28 days and measured every 2 to 3 days during compound dosing relative to control; assay type: functional; conditions: MV4-11, po, read-out: TGI

| SMILES | IC50 [1] | IC50 [2] | IC50 [3] | half-life at 0.1 µM [4] | half-life at 0.1 µM [5] | Intrinsic clearance [6] | Microsomal intrinsic clearance [7] | IC50 (MV4-11 [8]) | ΔTm [9] | Microsomal intrinsic clearance [10] | half-life at 0.1 µM [11] | other results |
| --- | --- | --- | --- | --- | --- | --- | --- | --- | --- | --- | --- | --- |
| Cc1cc(-c2cc(NS(C)(=O)=O)ccc2Oc2ccccc2)n2c1C(=O)NCC2 | 0.076 µM | 34.7 µM | 0.13 µM | – | – | – | – | – | – | – | – | – |
| CCS(=O)(=O)Nc1ccc(Oc2ccc(F)cc2F)c(-c2cc(C)c3c(=O)[nH]ccn23)c1 | – | 4 µM | – | 7.9 min | 33.9 min | 264 mL/min/g | 62 mL/min/g | 0.0145 µM | > 1 °C | 229 mL/min/g | 9.1 min | – |
| Cc1cc(-c2cc(NS(C)(=O)=O)ccc2OC2CCCCC2)n2cc[nH]c(=O)c12 | – | 5.4 µM | – | 0.9 min | 2.7 min | 2137 mL/min/g | 752 mL/min/g | 0.0049 µM | > 1 °C | 333 mL/min/g | 6.3 min | – |
| Cc1sc2c(c1C)C(c1ccc(Cl)cc1)=N[C@@H](CC(N)=O)c1nnc(C)n1-2 | – | – | – | – | – | – | – | – | – | – | – | IC50 [12]: 0.092 to 0.112 µM |
| Cc1cc(-c2cc(S(=O)(=O)N(C)C)cnc2Oc2ccc(F)cc2F)n2cc[nH]c(=O)c12 | 0.74 µM | > 100 µM | 0.772 µM | – | – | – | – | – | > 1 °C | – | – | – |
| Cc1cc(-c2cc(NS(C)(=O)=O)ccc2OCC2CC2)n2cc[nH]c(=O)c12 | 0.0786 µM | 25.1 µM | 0.0772 µM | – | – | – | – | 0.185 µM | > 1 °C | – | – | – |
| CCS(=O)(=O)Cc1ccc(Oc2ccc(F)cc2F)c(-c2cc(C)c3c(=O)[nH]ccn23)c1 | 0.0047 µM | 18.6 µM | 0.0074 µM | 33.9 min | 46.3 min | 61.9 mL/min/g | 46 mL/min/g | 0.0065 µM | > 1 °C | 175 mL/min/g | 12 min | – |
| Cc1cc(-c2cc(NS(C)(=O)=O)ccc2Nc2ccccc2)n2cc[nH]c(=O)c12 | 0.068 µM | > 33 µM | 0.0284 µM | – | – | – | – | 0.257 µM | > 1 °C | – | – | – |
| CCS(=O)(=O)Nc1ccc(Oc2ccc(F)cc2F)c(-c2cn(C)c(=O)c3[nH]ccc23)c1 [MIVEBRESIB] | – | 0.063 µM | 0.0027 µM | – | – | – | – | 0.0019 µM | > 1 °C | – | – | IC50 (MM1.S): 0.0065 µM; IC50 (RS4-11): 0.0064 µM; IC50 (Kasumi 1): 0.0063 µM |
| Cc1cc(-c2cc(NS(C)(=O)=O)ccc2Cc2ccccc2)n2cc[nH]c(=O)c12 | > 1 µM | 15.6 µM | > 1 µM | – | – | – | – | – | > 1 °C | – | – | – |
| Cc1cc(-c2cc(CS(C)(=O)=O)cnc2Oc2ccc(F)cc2F)n2cc[nH]c(=O)c12 | 0.0074 µM | 2.2 µM | 0.0035 µM | 32.5 min | 80.4 min | 64.6 mL/min/g | 26.1 mL/min/g | 0.0142 µM | > 1 °C | 35.7 mL/min/g | 58.5 min | bioavailability [13]: 37.9%; Cmax [14]: 0.16 µg/mL; half-life [15]: 48 min; AUC(0-t) [16]: 0.52 µg·h/mL; Vd [17]: 1.9 L/kg; AUC(0-t) [18]: 0.457 µg·h/mL; half-life [19]: 90 min; clearance [20]: 2.25 L/h/kg |
| Cc1sc2c(c1C)C(c1ccc(Cl)cc1)=N[C@@H](CC(=O)Nc1ccc(O)cc1)c1nnc(C)n1-2 [BIRABRESIB] | – | > 33 µM | – | – | – | – | – | 0.0463 µM | – | – | – | IC50 (MM1.S): 0.137 µM; IC50 (RS4-11): 0.416 µM; Activity (MV4-11 [21]): Active; inhibition in vivo at 50 mg/kg (MV4-11 [22]): 62.3%; IC50 (Kasumi 1): 0.135 µM |
| Cc1cc(-c2cc(NS(C)(=O)=O)ccc2Oc2ccccc2)n2cc[nH]c(=O)c12 | – | 25.1 µM | – | 0.7 min | 28.4 min | 3039 mL/min/g | 74 mL/min/g | 0.0204 µM | > 1 °C | 116 mL/min/g | 18.1 min | – |
| Cc1cc(-c2cc(S(C)(=O)=O)cnc2Oc2ccc(F)cc2F)n2cc[nH]c(=O)c12 | 0.288 µM | > 33 µM | 0.229 µM | – | – | – | – | – | > 1 °C | – | – | – |
| Cc1cc(-c2ccccc2Oc2ccccc2)n2cc[nH]c(=O)c12 | 4.5 µM | – | 1.6 µM | – | – | – | – | – | > 1 °C | – | – | – |
